Source: patent US20210204550A1, “STABILIZED FUNGICIDAL COMPOSITION” (priority 2018, published 2021)
Where a name gives a salt, the structure may show the parent alone.

Experiments:
Alternaria solani = assay: Antifungal activity against Alternaria solani on tomato plants (percent control relative to untreated plants); type: in vivo
Botrytis cinerea = assay: Antifungal activity against Botrytis cinerea on plants (percent control relative to untreated plants); conditions: Example 3; stored at 54° C. for two weeks or at 40° C. for eight weeks
[1] = Relative fusaricidin A levels in stored formulations by HPLC/MS TOF; conditions: Example 4; 54° C. for two weeks or 40° C. for eight weeks; FIGS. 3 and 4
[2] = agent at 2% in 70:30 (BC:water) dilution, after storage at 54° C. for two weeks
[3] = Example 3, stored at 54° C. for two weeks or at 40° C. for eight weeks
[4] = across the three assays of Tables 2-4, agent at 2% in 60:40 (BC:water) dilution

O=P([O-])(O)O.[K+] [potassium phosphate (monobasic)]
effect of stabilizing agent on antifungal activity of Paenibacillus sp. strain NRRL B-50972 BC (Alternaria solani; [2]): did not

C[N+](C)(C)CC(=O)O [betaine hydrochloride]
effect of stabilizing agent on antifungal activity of Paenibacillus sp. strain NRRL B-50972 BC (Botrytis cinerea): robust effect in stabilizing the antifungal activity
effect of stabilizing agent on antifungal activity of Paenibacillus sp. strain NRRL B-50972 BC (Alternaria solani; [3]): robust effect in stabilizing the antifungal activity

N=C(N)N [guanidine hydrochloride]
effect of stabilizing agent on antifungal activity of Paenibacillus sp. strain NRRL B-50972 BC (Alternaria solani; [4]): preserved the antifungal activity

O=P([O-])([O-])O.[K+].[K+] [potassium phosphate (dibasic)]
effect of stabilizing agent on antifungal activity of Paenibacillus sp. strain NRRL B-50972 BC (Botrytis cinerea): less than that of urea and betaine hydrochloride
effect of stabilizing agent on antifungal activity of Paenibacillus sp. strain NRRL B-50972 BC (Alternaria solani; [3]): less than that of urea and betaine hydrochloride
effect of stabilizing agent on antifungal activity of Paenibacillus sp. strain NRRL B-50972 BC (Alternaria solani; [2]): stabilized the antifungal activity
effect of stabilizing agent on fusaricidin A in Paenibacillus sp. strain NRRL B-50972 BC [1]: had less of an effect in stabilizing fusaricidin A

NC(N)=O [urea, carbonic diamide (CO(NH2)2)]
effect of stabilizing agent on antifungal activity of Paenibacillus sp. strain NRRL B-50972 BC (Botrytis cinerea): robust effect in stabilizing the antifungal activity
effect of stabilizing agent on antifungal activity of Paenibacillus sp. strain NRRL B-50972 BC (Alternaria solani; [3]): robust effect in stabilizing the antifungal activity
effect of stabilizing agent on antifungal activity of Paenibacillus sp. strain NRRL B-50972 BC (Alternaria solani; [4]): preserved the antifungal activity

glycerol ethyl oxylate
effect of stabilizing agent on antifungal activity of Paenibacillus sp. strain NRRL B-50972 BC (Alternaria solani; [4]): had little effect

O=C([O-])CC(O)(CC(=O)[O-])C(=O)[O-].[K+].[K+].[K+] [Potassium citrate (tribasic), potassium citrate (tribasic)]
effect of stabilizing agent on antifungal activity of Paenibacillus sp. strain NRRL B-50972 BC (Alternaria solani; [2]): demonstrated a stabilizing effect
